Reference: patent publication US7875606B2, “Izoxazoline derivative and herbicide” (Ihara Chemical Industry Co., Ltd., priority 2001, dated 2011)

Assays:
Format in all cases: in vivo
[1] = system: Echinochloa oryzicola Vasing.; test: Herbicidal effect by paddy field pre-emergence treatment; settings: wettable powder, active ingredient 1000 g/ha, examined at the 21st day from the treatment
Description: (§1) Test For Herbicidal Effect By Paddy Field Pre-Emergence Treatment
(§2) A paddy field soil was filled in a plastic pot of 100 cm^2 and subjected to puddling. Then, seeds of Echinochloa oryzicola Vasing. and Monochoria vaginalis (Murm. f.) Presl var. plantaginea (Roxb.) Solms-Laub. were sowed and water was filled in a depth of 3 cm. Next day, wettable powders produced in accordance with the Formulation 1 were diluted with water and dropped on the water surface. The application amount of each wettable powder was 1,000 g per 1 hectare in terms of the active ingredient. Then, breeding was made in a greenhouse, and the herbicidal effect of each wettable powder was examined at the 21st day from the treatment in accordance with the standard shown in Table 61.

[2] = system: Monochoria vaginalis (Murm. f.) Presl var. plantaginea (Roxb.) Solms-Laub.; test: as above; settings: wettable powder, active ingredient 1000 g/ha, examined at the 21st day from the treatment
Description: as §1, §2

[3] = system: Echinochloa crus-galli (L.) Beauv. var. crus-galli; test: Herbicidal effect by upland field pre-emergence treatment; settings: sprayed on the soil surface, active ingredient 1000 g/ha, examined at the 21st day from the treatment
Description: (§3) Test For Herbicidal Effect By Upland Field Pre-Emergence Treatment An upland field soil was filled in a plastic pot of 80 cm^2. Seeds of Echinochloa crus-galli (L.) Beauv. var. crus-galli and Setaria viridis (L.) Beauv. were sowed, followed by covering with the same soil. Wettable powders produced in accordance with the Formulation 1 were diluted with water and sprayed uniformly on the soil surface using a small sprayer, in an amount of 1,000 liters per 1 hectare so that the amount of each active ingredient became 1,000 g per 1 hectare. Then, breeding was made in a greenhouse, and the herbicidal effect of each wettable powder was examined at the 21st day from the treatment in accordance with the standard shown in Table 61.

[4] = system: Setaria viridis (L.) Beauv.; test: as above; settings: sprayed on the soil surface, active ingredient 1000 g/ha, examined at the 21st day from the treatment
Description: as §3

Cn1nc(C(F)(F)F)c(CS(=O)(=O)C2=NOC(C)(CCl)C2)c1Cl (stereo not shown) [Compound 2, 3-(5-chloro-1-methyl-3-trifluoromethyl-1H-pyrazol-4-ylmethylsulfonyl)-5-chloromethyl-5-methyl-2-isoxazoline]
5: Herbicidal effect index, Echinochloa oryzicola Vasing [1] | Herbicidal effect index, Monochoria vaginalis (Burm. f) Presl Var. plantaginea (Roxb.) Solms-Laub. [2] | Herbicidal effect index, Echinochloa crus-galli (L.) Beauv. Var. crus-galli [3] | Herbicidal effect index, Setaria viridis (L.) Beauv. [4]
